Data taken from patent US9512113B2, “N-(tetrazol-5-yl)- and N-(triazol-5-yl)arylcarboxylic thioamides and use thereof as herbicides” (BAYER CROPSCIENCE AG, priority 2012, dated 2016).

What was measured:
Type in all cases: in vivo
Avena fatua [1] = experiment: Pre-emergence herbicidal action against harmful plants; settings: Table C, 320 g/ha
Text: (§1) Seeds of monocotyledonous and dicotyledonous weed plants and crop plants are placed in wood-fiber pots in sandy loam and covered with soil. The compounds according to the invention, formulated in the form of wettable powders (WP) or as emulsion concentrates (EC), are then applied as aqueous suspension or emulsion at a water application rate of 600 to 800 I/ha (converted) with the addition of 0.2% of wetting agent to the surface of the covering soil. After the treatment, the pots are placed in a greenhouse and kept under good growth conditions for the test plants. The damage to the test plants is assessed visually after a test period of 3 weeks by comparison with untreated controls (herbicidal activity in percent (%): 100% action=the plants have died, 0% action=like control plants). Here, for example, the compounds Nos 1-8, 1-26 and 4-7, at an application rate of 80 g/ha, show an activity of at least 80% against Alopecurus myosuroides, Avena fatua, Cyperus serotinus, Echinochloa crus galli, Lolium multiflorum, Setaria viridis, Abutilon theophrasti, Amaranthus retroflexus, Matricaria inodora, Pharbitis purpureum, Stellaria media, Viola tricolor and Veronica persica.
(§2) These comparative experiments were carried out under the conditions mentioned above by the pre-emergence method and the post-emergence method. In the tables below, the top line in each case states the compound according to the invention, and the bottom line states the compound from WO 2012/028579 A1.

Polygonum convolvulus [2] = experiment: as above
Text: as §1, §2

Zea mays (corn) [3] = experiment: Pre-emergence action, damage to crop plants; settings: Table C, 320 g/ha
Text: as §1, §2

Lolium multiflorum = experiment: Post-emergence herbicidal action against harmful plants; settings: 80 g/ha
Experimental: (§3) Seeds of monocotyledonous and dicotyledonous weed and crop plants are placed in sandy loam in wood-fiber pots, covered with soil and cultivated in a greenhouse under good growth conditions. 2 to 3 weeks after sowing, the test plants are treated at the one-leaf stage. The compounds according to the invention, formulated in the form of wettable powders (WP) or as emulsion concentrates (EC), are then sprayed as aqueous suspension or emulsion at a water application rate of 600 to 800 I/ha (converted) with the addition of 0.2% of wetting agent onto the green parts of the plants. After the test plants have been left to stand in the greenhouse under optimal growth conditions for about 3 weeks, the action of the preparations is assessed visually in comparison to untreated controls (herbicidal action in percent (%): 100% action=the plants have died, 0% action=like control plants). Here, for example, the compounds Nos 1-8 and 1-83, at an application rate of 80 g/ha, show an activity of at least 80% against Alopecurus myosuroides, Avena fatua, Cyperus serotinus, Echinochloa crus galli, Lolium multiflorum, Setaria viridis, Abutilon theophrasti, Amaranthus retroflexus, Matricaria inodora, Pharbitis purpureum, Polygonum convolvulus, Stellaria media, Viola tricolor and Veronica persica.
as §2

Alopecurus myosuroides = experiment: as above; settings: Table I, 80 g/ha
Experimental: as §3, §2

Zea mays (corn) [4] = experiment: Post-emergence action, damage to crop plants; settings: 80 g/ha
Experimental: as §3, §2

Setaria viridis = experiment: Post-emergence herbicidal action against harmful plants; settings: Table H, 5 g/ha
Experimental: as §3, §2

Echinochloa crus galli [5] = experiment: as above; settings: Table H, 5 g/ha
Experimental: as §3, §2

Amaranthus retroflexus [6] = experiment: as above; settings: Table H, 5 g/ha
Experimental: as §3, §2

Pharbitis purpureum [7] = experiment: Pre-emergence herbicidal action against harmful plants
Text: as §1, §2

[8] = tested on: Triticum aestivum (wheat); experiment: Pre-emergence action, damage to crop plants; settings: Table D, 320 g/ha
Text: as §1, §2

Pharbitis purpureum [9] = experiment: Post-emergence herbicidal action against harmful plants; settings: Table G, 5 g/ha
Experimental: as §3, §2

Polygonum convolvulus [10] = experiment: as above
Experimental: as §3, §2

Oryza sativa (rice) [11] = experiment: Post-emergence action, damage to crop plants; settings: Table G, 5 g/ha
Experimental: as §3, §2

[12] = tested on: Triticum aestivum (wheat); experiment: Post-emergence action, damage to crop plants
Experimental: as §3, §2

Avena fatua [13] = experiment: Post-emergence herbicidal action against harmful plants; settings: Table K, 80 g/ha
Experimental: as §3, §2

Abutilon theophrasti = experiment: Pre-emergence herbicidal action against harmful plants
Text: as §1, §2

[14] = tested on: Brassica napus (oilseed rape); experiment: Pre-emergence action, damage to crop plants
Text: as §1, §2

Cyperus serotinus = experiment: Pre-emergence herbicidal action against harmful plants; settings: Table B, 20 g/ha
Text: as §1, §2

Echinochloa crus galli [15] = experiment: as above; settings: 20 g/ha
Text: as §1, §2

Oryza sativa (rice) [16] = experiment: Pre-emergence action, damage to crop plants; settings: 20 g/ha
Text: as §1, §2

Amaranthus retroflexus [17] = experiment: Pre-emergence herbicidal action against harmful plants; settings: Table E, 320 g/ha
Text: as §1, §2

**Q.** With `Cn1nnnc1NC(=S)c1ccc(S(C)(=O)=O)c(COCC(F)(F)F)c1Cl` as the molecule, how does the “Herbicidal efficacy against AVEFA” value (Avena fatua [1]) read?
**A.** 90%

**Q.** And the “Herbicidal efficacy against POLCO” value (Polygonum convolvulus [2]; Table C, 320 g/ha)?
**A.** 90%

**Q.** What about the “Damage to crop plants ZEAMX” value (Zea mays (corn) [3]) of the same molecule?
**A.** 0%

**Q.** Which “Herbicidal efficacy against LOLMU” value (Lolium multiflorum; Table I) does the source give for `CCCn1nnnc1NC(=S)c1ccc(C(F)(F)F)c(S(C)(=O)=O)c1C` [drawing 24] here?
**A.** 20%

**Q.** And the “Herbicidal efficacy against ALOMY” value (Alopecurus myosuroides)?
**A.** 80%

**Q.** What about the “Damage to crop plants ZEAMX” value (Zea mays (corn) [4]; Table I) of the same molecule?
**A.** 0%

**Q.** How did the “Herbicidal efficacy against SETVI” value (Setaria viridis) turn out when `Cc1c(C(=O)Nc2nnnn2C)ccc(S(C)(=O)=O)c1Cl` [drawing 23] was run?
**A.** 0%

**Q.** And the “Herbicidal efficacy against ECHCG” value (Echinochloa crus galli [5])?
**A.** 10%

**Q.** And the “Herbicidal efficacy against AMARE” value (Amaranthus retroflexus [6])?
**A.** 20%

**Q.** For `Cc1nc(C(F)(F)F)ccc1C(=O)Nc1nnnn1C`, which “Herbicidal efficacy against PHBPU” value (Pharbitis purpureum [7]; Table D, 320 g/ha) is on record?
**A.** 60%

**Q.** What about the “Herbicidal efficacy against POLCO” value (Polygonum convolvulus [2]; Table D, 320 g/ha) of the same molecule?
**A.** 60%

**Q.** What about the “Damage to crop plants TRZAS” value [8] of the same molecule?
**A.** 20%

**Q.** For `CCOc1c(S(C)(=O)=O)ccc(C(=O)Nc2nnnn2C)c1Cl`, which “Herbicidal efficacy against PHBPU” value (Pharbitis purpureum [9]) is on record?
**A.** 20%

**Q.** What about the “Herbicidal efficacy against POLCO” value (Polygonum convolvulus [10]; Table G, 5 g/ha) of the same molecule?
**A.** 40%

**Q.** What about the “Damage to crop plants ORYSA” value (Oryza sativa (rice) [11]) of the same molecule?
**A.** 40%

**Q.** What about the “Damage to crop plants TRZAS” value ([12]; Table G, 5 g/ha) of the same molecule?
**A.** 30%

**Q.** Which “Herbicidal efficacy against PHBPU” value (Pharbitis purpureum [7]; Table D, 320 g/ha) does the source give for `Cc1nc(C(F)(F)F)ccc1C(=S)Nc1nnnn1C` here?
**A.** 80%

**Q.** What about the “Herbicidal efficacy against POLCO” value (Polygonum convolvulus [2]; Table D, 320 g/ha) of the same molecule?
**A.** 80%

**Q.** And the “Damage to crop plants TRZAS” value [8]?
**A.** 0%

**Q.** For `Cc1c(C(=S)Nc2nnnn2C)ccc(C(F)(F)F)c1S(C)(=O)=O` [drawing 28], which “Herbicidal efficacy against LOLMU” value (Lolium multiflorum; Table K) is on record?
**A.** 90%

**Q.** What about the “Herbicidal efficacy against AVEFA” value (Avena fatua [13]) of the same molecule?
**A.** 90%

**Q.** And the “Damage to crop plants ZEAMX” value (Zea mays (corn) [4]; Table K)?
**A.** 50%

**Q.** Which results are given for `Cn1nnnc1NC(=O)c1ccc(C(F)(F)F)cc1S(C)(=O)=O`?
**A.** Herbicidal efficacy against POLCO (Polygonum convolvulus [10]; Table J, 80 g/ha): 70%; Damage to crop plants TRZAS ([12]; Table J, 80 g/ha): 60%

**Q.** `Cc1c(C(=S)Nc2nnnn2C)ccc(S(C)(=O)=O)c1Cl` [drawing 8] was tested. Which “Herbicidal efficacy against PHBPU” value (Pharbitis purpureum [7]; Table A, 20 g/ha) did it give?
**A.** 20%

**Q.** And the “Herbicidal efficacy against ABUTH” value (Abutilon theophrasti; Table A, 20 g/ha)?
**A.** 90%

**Q.** What about the “Damage to crop plants BRSNW” value ([14]; Table A, 20 g/ha) of the same molecule?
**A.** 0%

**Q.** Which results are given for `CCCn1nnnc1NC(=O)c1ccc(C(F)(F)F)c(S(C)(=O)=O)c1C` [drawing 11]?
**A.** Herbicidal efficacy against CYPES (Cyperus serotinus): 0%; Herbicidal efficacy against ECHCG (Echinochloa crus galli [15]; Table B): 0%; Damage to crop plants ORYSA (Oryza sativa (rice) [16]; Table B): 50%

**Q.** What does the source list for `Cc1c(C(=O)Nc2nnnn2C)ccc(C(F)(F)F)c1S(C)(=O)=O` [drawing 29]?
**A.** Herbicidal efficacy against LOLMU (Lolium multiflorum; Table K): 70%; Herbicidal efficacy against AVEFA (Avena fatua [13]): 70%; Damage to crop plants ZEAMX (Zea mays (corn) [4]; Table K): 70%

**Q.** With `Cc1c(C(=O)Nc2nnnn2C)ccc(S(C)(=O)=O)c1Cl` [drawing 9] as the molecule, how does the “Herbicidal efficacy against PHBPU” value (Pharbitis purpureum [7]; Table A, 20 g/ha) read?
**A.** 0%

**Q.** What about the “Herbicidal efficacy against ABUTH” value (Abutilon theophrasti; Table A, 20 g/ha) of the same molecule?
**A.** 70%

**Q.** What about the “Damage to crop plants BRSNW” value ([14]; Table A, 20 g/ha) of the same molecule?
**A.** 20%

**Q.** With `Cn1nnnc1NC(=S)c1ccc(C(F)(F)F)cc1S(C)(=O)=O` as the molecule, how does the “Herbicidal efficacy against POLCO” value (Polygonum convolvulus [10]; Table J, 80 g/ha) read?
**A.** 90%

**Q.** And the “Damage to crop plants TRZAS” value ([12]; Table J, 80 g/ha)?
**A.** 20%

**Q.** Which “Herbicidal efficacy against SETVI” value (Setaria viridis) does the source give for `Cc1c(C(=S)Nc2nnnn2C)ccc(S(C)(=O)=O)c1Cl` [drawing 22] here?
**A.** 40%

**Q.** And the “Herbicidal efficacy against ECHCG” value (Echinochloa crus galli [5])?
**A.** 70%

**Q.** What about the “Herbicidal efficacy against AMARE” value (Amaranthus retroflexus [6]) of the same molecule?
**A.** 40%

**Q.** How did the “Herbicidal efficacy against AMARE” value (Amaranthus retroflexus [17]) turn out when `Cc1c(C(=S)Nc2ncnn2C)ccc(S(C)(=O)=O)c1S(C)(=O)=O` was run?
**A.** 90%

**Q.** What about the “Herbicidal efficacy against ABUTH” value (Abutilon theophrasti; Table E, 320 g/ha) of the same molecule?
**A.** 80%

**Q.** What about the “Damage to crop plants BRSNW” value ([14]; Table E, 320 g/ha) of the same molecule?
**A.** 0%

**Q.** With `CCCn1nnnc1NC(=O)c1ccc(C(F)(F)F)c(S(C)(=O)=O)c1C` [drawing 25] as the molecule, how does the “Herbicidal efficacy against LOLMU” value (Lolium multiflorum; Table I) read?
**A.** 0%

**Q.** What about the “Herbicidal efficacy against ALOMY” value (Alopecurus myosuroides) of the same molecule?
**A.** 30%

**Q.** What about the “Damage to crop plants ZEAMX” value (Zea mays (corn) [4]; Table I) of the same molecule?
**A.** 20%

**Q.** What does the source list for `Cc1c(C(=S)Nc2nnnn2C)ccc(C(F)(F)F)c1S(C)(=O)=O` [drawing 18]?
**A.** Herbicidal efficacy against POLCO (Polygonum convolvulus [2]; Table F, 20 g/ha): 60%; Herbicidal efficacy against ECHCG (Echinochloa crus galli [15]; Table F): 100%; Damage to crop plants ORYSA (Oryza sativa (rice) [16]; Table F): 20%; Damage to crop plants BRSNW ([14]; Table F, 20 g/ha): 0%

**Q.** `Cc1c(C(=O)Nc2ncnn2C)ccc(S(C)(=O)=O)c1S(C)(=O)=O` was tested. Which “Herbicidal efficacy against AMARE” value (Amaranthus retroflexus [17]) did it give?
**A.** 40%

**Q.** What about the “Herbicidal efficacy against ABUTH” value (Abutilon theophrasti; Table E, 320 g/ha) of the same molecule?
**A.** 0%

**Q.** What about the “Damage to crop plants BRSNW” value ([14]; Table E, 320 g/ha) of the same molecule?
**A.** 20%

**Q.** Which results are given for `CCOc1c(S(C)(=O)=O)ccc(C(=S)Nc2nnnn2C)c1Cl`?
**A.** Herbicidal efficacy against PHBPU (Pharbitis purpureum [9]): 80%; Herbicidal efficacy against POLCO (Polygonum convolvulus [10]; Table G, 5 g/ha): 60%; Damage to crop plants ORYSA (Oryza sativa (rice) [11]): 10%; Damage to crop plants TRZAS ([12]; Table G, 5 g/ha): 0%

**Q.** How did the “Herbicidal efficacy against CYPES” value (Cyperus serotinus) turn out when `CCCn1nnnc1NC(=S)c1ccc(C(F)(F)F)c(S(C)(=O)=O)c1C` [drawing 10] was run?
**A.** 100%

**Q.** What about the “Herbicidal efficacy against ECHCG” value (Echinochloa crus galli [15]; Table B) of the same molecule?
**A.** 20%

**Q.** And the “Damage to crop plants ORYSA” value (Oryza sativa (rice) [16]; Table B)?
**A.** 0%

**Q.** What does the source list for `Cc1c(C(=O)Nc2nnnn2C)ccc(C(F)(F)F)c1S(C)(=O)=O` [drawing 19]?
**A.** Herbicidal efficacy against POLCO (Polygonum convolvulus [2]; Table F, 20 g/ha): 0%; Herbicidal efficacy against ECHCG (Echinochloa crus galli [15]; Table F): 20%; Damage to crop plants ORYSA (Oryza sativa (rice) [16]; Table F): 50%; Damage to crop plants BRSNW ([14]; Table F, 20 g/ha): 30%

**Q.** `Cn1nnnc1NC(=O)c1ccc(S(C)(=O)=O)c(COCC(F)(F)F)c1Cl` was tested. Which “Herbicidal efficacy against AVEFA” value (Avena fatua [1]) did it give?
**A.** 70%

**Q.** And the “Herbicidal efficacy against POLCO” value (Polygonum convolvulus [2]; Table C, 320 g/ha)?
**A.** 50%

**Q.** What about the “Damage to crop plants ZEAMX” value (Zea mays (corn) [3]) of the same molecule?
**A.** 20%
